Measured values as given in patent publication US11142533B2, “Macrocycles for use in treating disease” (TURNING POINT THERAPEUTICS, INC., priority 2019, dated 2021).
In brackets after ≈: the same amount, converted by molar mass.

What was measured:
KM12 (TPM3-TRKA) = KM12 (TPM3-TRKA) (Homo sapiens, UniProt P04629); assay: Cell proliferation assay (CellTiter-Glo)
KG-1 cell (OP2-FGFR1) = KG-1 cell (OP2-FGFR1) (Homo sapiens, UniProt P11362); assay: Cell proliferation assay (CellTiter-Glo)
[1] = Solubility test in phosphate buffer; type: physicochemical; details: aqueous buffer, thermodynamic from solid; phosphate buffer pH 7.4, room temperature
Procedure: Aliquot of 1.035 mL phosphate buffer (PB) (pH 7.4) was added into 2.07 mg of the test compound (for a 2 mg·mL^−1 upper limiting solubility determination) in a 1.5 mL tubes. The mixture was ultrasonicly treated for 10 min and rotated on rotator at room temperature for more than 8 hr. After rotation, the tube was ultrasonicly treated for 10 min and centrifuged at 13000 rpm for 15 min. 0.3 mL of the supernatant was transferred into a 0.6 mL tube and discarded after rotated for 5 min for rinsing, then about 0.6 mL of the residual supernatant was transferred into the rinsed tube and centrifuged again at 13000 rpm for 15 min. The supernatant after every centrifugation was appropriately diluted and transferred for LC-MS/MS analysis where a standard curve was constructed with 7 concentration levels (2, 4, 10, 20, 40, 100 and 200 μg mL^−1) and used for the quantitation of the analyte in PB.

[2] = Mouse pharmacokinetic study; type: in vivo; details: single oral dose (dose level not given), plasma
Procedure: To prepare 1 L of the vehicle solution (0.5% CMC and 1.0% Tween 80), 10 g of Tween 80 was mixed with 985 mL of water into a 1 L bottle. The mixture was stirred until Tween 80 was completely dissolved. With continued stirring, 5 g of CMC was very slowly sprinkled into the solution. Stirring was continued until all CMC was dissolved, which might take several hr. The resulting vehicle solution was stored at 4° C.
The compound was suspended in the vehicle solution and the mice were orally administrated with a single dose of the compound at the selected dose level. The blood samples were collected according to the defined time table into tubes containing K2-EDTA, followed by gentle mixing to assure distribution of the anti-coagulant. Immediately after the blood sample was collected and mixed, it was placed on ice. The samples were then centrifuged at 4° C. for 10 minutes at 5,000 RPM. The plasma was harvested into pre-labeled tubes and stored at −80° C. until analyzed by LC-MS/MS.

[3] = Liver microsomal stability; type: in vitro ADME; details: pH 7.4, 1 μM compound, 0.5 mg/mL liver microsome protein
Procedure: The test compound stock solution was prepared by weighing 1.07 mg and dissolving in 0.261 mL of DMSO to achieve the concentration of 10 mM. Working solution of the test compound was prepared by diluting stock solution using DMSO to yield the concentration of 300 μM.
The assay was carried out in 96-well microtiter plates. In each well, the reaction mixture (25 μL) contained the test compound at the final concentration of 1 μM, 0.5 mg/mL liver microsome protein, and 1 mM NADPH in 100 mM potassium phosphate, pH 7.4 buffer with 3.3 mM MgCl2. The mixtures were incubated in duplicate at 37° C. for 0, 15, 30 or 60 minutes, and 150 μL of quench solution (acetonitrile with 0.1% formic acid) with internal standard (bucetin for positive ESI mode) was added into each well of reaction to terminate the reaction. The plates were then sealed and centrifuged at 4° C. for 15 minutes at 4000 rpm. The resulting supernatant was transferred to fresh plates for LC-MS/MS analysis of the test compounds. Verapamil was used as the positive control to validate the assay system.
All samples were analyzed with LC-MS/MS using an AB Sciex API 4000 instrument, coupled to a Shimadzu LC-20AD LC Pump system. Analytical samples were separated using a Waters Atlantis T3 dC18 reverse phase HPLC column (20 mm×2.1 mm) at a flow rate of 0.5 mL/min. The mobile phase consisted of 0.1% formic acid in water (solvent A) and 0.1% formic acid in acetonitrile (solvent B).
The extent of metabolism was calculated based on the disappearance of the test compound, compared to its initial concentration. The initial rates of clearance of test compounds were calculated using linear regression plot of semi-log % remaining of compounds versus time. The elimination rate constant (equals to negative slope) of the linear regression plot was then used to determine t112 and the intrinsic clearance (CLInt) using the following formula: k=−slope t1/2=0.693/k CLint=k/Cprotein
Where Cprotein (mg/mL) is the microsomal protein concentration in the incubation system.

[4] = female, mouse, liver microsomes

Chain of KM12 (TPM3-TRKA) (P04629 with tags, fused parts or gaps): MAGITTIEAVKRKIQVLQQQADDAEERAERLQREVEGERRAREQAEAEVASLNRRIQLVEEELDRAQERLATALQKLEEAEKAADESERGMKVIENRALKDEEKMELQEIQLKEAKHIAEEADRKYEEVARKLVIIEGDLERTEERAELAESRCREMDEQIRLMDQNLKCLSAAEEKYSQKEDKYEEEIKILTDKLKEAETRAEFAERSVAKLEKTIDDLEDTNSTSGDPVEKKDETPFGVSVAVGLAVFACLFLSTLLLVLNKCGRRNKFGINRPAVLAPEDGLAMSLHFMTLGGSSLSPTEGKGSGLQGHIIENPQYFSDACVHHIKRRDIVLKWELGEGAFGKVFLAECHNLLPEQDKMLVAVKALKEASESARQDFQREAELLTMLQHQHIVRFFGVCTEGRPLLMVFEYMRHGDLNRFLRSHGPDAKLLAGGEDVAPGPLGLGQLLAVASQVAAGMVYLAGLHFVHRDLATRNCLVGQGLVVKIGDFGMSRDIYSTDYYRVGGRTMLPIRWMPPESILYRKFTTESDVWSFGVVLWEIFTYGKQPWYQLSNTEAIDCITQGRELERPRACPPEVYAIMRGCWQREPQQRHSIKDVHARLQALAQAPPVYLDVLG
Chain of KG-1 cell (OP2-FGFR1) (P11362 456-822 limits assumed): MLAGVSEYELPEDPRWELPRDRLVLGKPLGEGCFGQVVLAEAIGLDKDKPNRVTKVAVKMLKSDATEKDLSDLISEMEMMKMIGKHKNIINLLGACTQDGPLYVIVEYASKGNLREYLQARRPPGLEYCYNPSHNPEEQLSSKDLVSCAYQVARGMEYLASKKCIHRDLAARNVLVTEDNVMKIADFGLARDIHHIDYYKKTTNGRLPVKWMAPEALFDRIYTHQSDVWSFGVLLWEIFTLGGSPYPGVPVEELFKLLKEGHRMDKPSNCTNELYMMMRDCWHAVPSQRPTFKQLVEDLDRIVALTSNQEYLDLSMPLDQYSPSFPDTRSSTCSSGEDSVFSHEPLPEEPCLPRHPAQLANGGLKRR

| Structure (SMILES) | IC50 (KM12 (TPM3-TRKA)) [nM] | IC50 (KG-1 cell (OP2-FGFR1)) [nM] | solubility [1] [µg/mL] | AUC [2] [ng·h/mL] | Cmax [2] [ng/mL] | Tmax [2] [min] | microsomal CLint at 1 µM [3, 4] [µL/min/mg] | microsomal CLint at 1 µM ([3]; female, rat, liver microsomes) [µL/min/mg] | microsomal CLint at 1 µM ([3]; human, pooled liver microsomes) [µL/min/mg] |
| --- | --- | --- | --- | --- | --- | --- | --- | --- | --- |
| C[C@@H]1CCOc2ccc(F)cc2CN2c3nc4c(cnn4cc3OC[C@H]2C(F)F)C(=O)N1 [Compound 5, (6R,16S)-16-(Difluoromethyl)-12-fluoro-6-methyl-5,6,7,8,16,17-hexahydro-4H,14H-1,19-(metheno)[1,4]oxazino[3,4-j]pyrazolo[4,3-g][1,5,9,11]benzoxatriazacyclotetradecin-4-one] | < 0.2 | 514 | – | – | – | – | – | – | – |
| C[C@@H]1COc2ncc(F)cc2CN2c3nc4c(cnn4cc3OC[C@H]2C)C(=O)N1 [Comp. Ex. 1, reference compound] | < 0.2 | 22.2 | 7.9 (≈ 19.8 µM) | 12300 | 4190 | 30 | 22 | 10 | 2.6 |
| CC1(C)CNC(=O)c2cnn3cc4c(nc23)N(Cc2cc(F)ccc2OC1)[C@H](C(F)F)CO4 [Compound 7, (16S)-16-(Difluoromethyl)-12-fluoro-7,7-dimethyl-5,6,7,8,16,17-hexahydro-4H,14H-1,19-(metheno)[1,4]oxazino[3,4-j]pyrazolo[4,3-g][1,5,9,11]benzoxatriazacyclotetradecin-4-one] | < 0.2 | 40.7 | – | – | – | – | – | – | – |
| O=C1NCCCOc2ccc(F)cc2CN2c3nc4c1cnn4cc3OC[C@H]2C(F)F [Compound 3, (16S)-16-(Difluoromethyl)-12-fluoro-5,6,7,8,16,17-hexahydro-4H,14H-1,19-(metheno)[1,4]oxazino[3,4-j]pyrazolo[4,3-g][1,5,9,11]benzoxatriazacyclotetradecin-4-one] | < 0.2 | 75.3 | – | – | – | – | – | – | – |
| C[C@@H]1COc2cn3ncc4c3nc2N1Cc1cc(F)cnc1OCC(C)(C)NC4=O [Comp. Ex. 2, reference compound] | 0.2 | 0.65 | 4.9 (≈ 11.9 µM) | 18700 | 2900 | 30 | 21 | 5.9 | 3.9 |

Next, values leading:

| IC50 (KM12 (TPM3-TRKA)) [nM] | IC50 (KG-1 cell (OP2-FGFR1)) [nM] | solubility [1] [µg/mL] | AUC [2] [ng·h/mL] | Cmax [2] [ng/mL] | Tmax [2] [min] | microsomal CLint at 1 µM [3, 4] [µL/min/mg] | microsomal CLint at 1 µM ([3]; female, rat, liver microsomes) [µL/min/mg] | microsomal CLint at 1 µM ([3]; human, pooled liver microsomes) [µL/min/mg] | Structure (SMILES) |
| --- | --- | --- | --- | --- | --- | --- | --- | --- | --- |
| < 0.2 | 385 | – | – | – | – | – | – | – | O=C1NC2(CCOc3ccc(F)cc3CN3c4nc5c1cnn5cc4OC[C@H]3C(F)F)CC2 [Compound 6, (16′S)-16′-(Difluoromethyl)-12′-fluoro-4′H,5′H,7′H,8′H,14′H,16′H,17′H-spiro[cyclopropane-1,6′-[1,19](metheno)[1,4]oxazino[3,4-j]pyrazolo[4,3-g][1,5,9,11]benzoxatriazacyclotetradecin]-4′-one] |
| < 0.2 | 2100 | – | – | – | – | – | – | – | CC1(C)CCOc2ccc(F)cc2CN2c3nc4c(cnn4cc3OC[C@H]2C(F)F)C(=O)N1 [Compound 8, (16S)-16-(Difluoromethyl)-12-fluoro-6,6-dimethyl-5,6,7,8,16,17-hexahydro-4H,14H-1,19-(metheno)[1,4]oxazino[3,4-j]pyrazolo[4,3-g][1,5,9,11]benzoxatriazacyclotetradecin-4-one] |
| – | 60.9 | – | – | – | – | – | – | – | O=C1NC2(CC2)COc2ccc(F)cc2CN2c3nc4c1cnn4cc3OC[C@H]2C(F)F [Compound 4, (4′S)-4′-(Difluoromethyl)-8′-fluoro-3′H,4′H,6′H,12′H,14′H,15′H-spiro[cyclopropane-1,13′-[18,1](metheno)[1,4]oxazino[3,4-i]pyrazolo[4,3-f][1,4,8,10]benzoxatriazacyclotridecin]-15′-one] |
